Measurements published in US7236891B2, “Methods of determining polypeptide structure and function” (Queen's University at Kingston, priority 2001, dated 2007).
“Also recorded” adds a separate entry of the source. Like-named read-outs stand apart in the source and are kept apart here. Square brackets hold non-standard residues; d marks the D form. Peptide text beside a SMILES is read from it. Nle = CCCC[C@H](N)C(=O)O

Key:
[1] = molecular target: T1, μI-II (domain I-II construct from μ-calpain) (Rattus norvegicus, UniProt P97571); assay: Proteolytic activity of μI-II against synthetic peptide substrate SLY-MCA; assay type: biochemical; conditions: for inhibition of μI-II protease activity: qualitative, data not shown
T1 construct: extended from residue 29 (MG^29RHENA-) to residue 356; added N-terminal Met (N); made in house; host or cells: E. coli BL21 (DE3)
Method: (§1) Proteolytic digestion of the C105S m-calpain heterodimer was performed at 22° C. in a final volume of less than 150 μL, in 50 mM HEPES pH 7.6, 1 mg/mL calpain, 0.15 mg/mL μI-II, without divalent cations, or with 1 mM CaCl2 or 1 mM MgCl2. Autolysis of μI-II was performed under the same conditions but instead of the C105S m-calpain substrate, 2.5 mg/mL of μI-II was used. The reaction was stopped by the addition of 2×SDS sample buffer. At specific time intervals aliquots were removed and analyzed by SDS-PAGE using a 9% gel. Control reactions lacked the protease domain I–II. The activity of μI-II against the peptide substrate SLY-MCA (Sigma) was also tested in 50 mM HEPES pH 7.6, 200 mM NaCl, 1 mM DTT, 5–30 mM divalent cation (CaCl2, MgCl2, MnCl2, or ZnCl2), 0.75 mM SLY-MCA, 2.5 μM μI-II, in a final volume of 3 mL. MCA release was monitored in a LS50B Perkin Elmer luminescence spectrometer set with excitation and the emission wavelengths at 360 nm and 460 nm, respectively. Steady-state kinetics analysis was performed under the same buffer conditions but in the presence of 0.5 mM CaCl2, by varying SLY-MCA concentration from 0.02–1.5 mM. The steady-state parameters (kcat and KM) were obtained from the Michaelis-Menten plot.

μI-II (C115S) [2] = molecular target: T2, μI-II (C115S) (Rattus norvegicus, UniProt P97571, C115S); assay: Intrinsic tryptophan fluorescence of μI-II during Ca2+ titration; assay type: binding; conditions: for ability to substitute for CaCl2 in the intrinsic tryptophan fluorescence change: concentrations up to 30 mM
T2 construct: extended from residue 29 (MG^29RHENA-) to residue 356; added N-terminal Met (N); made in house; host or cells: E. coli BL21 (DE3)
Method: Intrinsic tryptophan fluorescence measurements were performed in a Perkin Elmer LS50B fluorescence spectrophotometer at 22° C. using a stirrer-adapted 4 mL cuvette (Helmma). Excitation and emission wavelength were set at 280 nm and 340 nm, respectively. The reaction buffer was the same as that used for activity measurements against SLY-MCA, and the protein concentration was 0.65 μM. […] CaCl2 (50 mM) dissolved in the reaction buffer was pumped continuously (4 μL/min, Harvard Apparatus pump 22) using a 250 μL microsyringe (Hamilton-microliter 1000 series gastight) through a tube into the cuvette. The reaction mixture was vigorously mixed using the internal magnetic stirrer of the fluorimeter. The fluorescence intensity was corrected for dilution, and the normalised data was fitted to the Hill equation y=x^n/k^n+x^n), where y is the fraction of maximum intensity change, k=[Ca^2+]0.5 (the value of [Ca^2+] at which half-maximum intensity change is observed, n is the Hill coefficient, and x is [Ca^2+]. Intrinsic tryptophan fluorescence measurements were also performed under the same buffer conditions but substituting for CaCl2, either MgCl2, MnCl2, or ZnCl2 up to 30 mM. To test the aggregation state of the domain I–II constructs, relative 90° light scattering was monitored under the same reaction conditions by setting both the excitation and emission wavelength of the spectrophotometer to 320 nm. No significant aggregation was detected even at the highest CaCl2 concentration (30 mM) tested.

μI-II (C115S) [3] = molecular target: T2, μI-II (C115S); assay: as above; assay type: binding; conditions: read-out: Ca2+ requirement for activation of μI-II
intact μ-calpain = molecular target: T3, intact μ-calpain (Homo sapiens, UniProt P07384); conditions: reported values; read-out: Ca2+ for half-maximal activation of intact μ-calpain; cited from earlier work
T3 sequence (P07384 1-714): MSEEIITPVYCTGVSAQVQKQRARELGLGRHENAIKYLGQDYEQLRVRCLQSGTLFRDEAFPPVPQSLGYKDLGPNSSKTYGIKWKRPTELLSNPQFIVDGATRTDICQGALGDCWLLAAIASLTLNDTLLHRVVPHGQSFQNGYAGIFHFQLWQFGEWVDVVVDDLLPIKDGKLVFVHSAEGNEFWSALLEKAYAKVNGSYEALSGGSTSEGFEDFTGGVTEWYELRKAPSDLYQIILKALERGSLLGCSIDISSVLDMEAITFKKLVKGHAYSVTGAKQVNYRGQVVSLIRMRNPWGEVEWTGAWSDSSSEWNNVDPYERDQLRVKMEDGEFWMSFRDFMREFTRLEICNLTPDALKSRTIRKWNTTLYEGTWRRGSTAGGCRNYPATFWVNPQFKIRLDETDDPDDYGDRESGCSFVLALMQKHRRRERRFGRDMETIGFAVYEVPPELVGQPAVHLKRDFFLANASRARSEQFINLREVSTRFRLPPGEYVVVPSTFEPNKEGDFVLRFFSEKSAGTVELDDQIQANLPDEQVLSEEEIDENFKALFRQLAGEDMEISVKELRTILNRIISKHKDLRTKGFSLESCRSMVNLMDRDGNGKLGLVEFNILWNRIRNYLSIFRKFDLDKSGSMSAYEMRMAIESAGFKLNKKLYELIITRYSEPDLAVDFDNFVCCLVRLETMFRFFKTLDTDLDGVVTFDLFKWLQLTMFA
T3 sequence (P04632 1-268 partner): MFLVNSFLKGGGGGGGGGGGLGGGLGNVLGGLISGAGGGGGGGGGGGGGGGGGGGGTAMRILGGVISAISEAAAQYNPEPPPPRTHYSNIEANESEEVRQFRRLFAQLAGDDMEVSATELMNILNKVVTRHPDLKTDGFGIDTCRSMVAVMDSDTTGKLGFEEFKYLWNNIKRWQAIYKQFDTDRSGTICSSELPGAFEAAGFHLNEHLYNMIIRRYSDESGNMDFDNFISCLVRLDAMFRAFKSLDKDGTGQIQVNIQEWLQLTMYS

μI-II [4] = molecular target: T4, μI-II (Rattus norvegicus, UniProt P97571); assay: Proteolysis of inactive C105S m-calpain heterodimer by μI-II; assay type: biochemical; conditions: 1 mM MgCl2
T4 construct: extended from residue 29 (MG^29RHENA-) to residue 356; added N-terminal Met (N); made in house; host or cells: E. coli BL21 (DE3)
Method: as §1

μI-II [5] = molecular target: T4, μI-II; assay: Autolysis of μI-II in 1 mM CaCl2 (SDS-PAGE); conditions: 1 mM CaCl2, 20 hours
Method: as §1

T2 sequence (P97571 29-356 C115S): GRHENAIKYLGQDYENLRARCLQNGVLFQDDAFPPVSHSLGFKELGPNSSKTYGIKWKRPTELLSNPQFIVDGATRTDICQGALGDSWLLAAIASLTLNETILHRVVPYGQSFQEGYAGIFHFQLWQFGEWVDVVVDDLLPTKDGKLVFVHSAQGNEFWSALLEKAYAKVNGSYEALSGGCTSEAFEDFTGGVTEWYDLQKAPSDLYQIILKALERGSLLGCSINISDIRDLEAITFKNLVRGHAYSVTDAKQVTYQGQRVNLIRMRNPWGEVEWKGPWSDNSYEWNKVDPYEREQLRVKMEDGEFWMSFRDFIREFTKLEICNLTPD
T1 sequence (P97571 29-356): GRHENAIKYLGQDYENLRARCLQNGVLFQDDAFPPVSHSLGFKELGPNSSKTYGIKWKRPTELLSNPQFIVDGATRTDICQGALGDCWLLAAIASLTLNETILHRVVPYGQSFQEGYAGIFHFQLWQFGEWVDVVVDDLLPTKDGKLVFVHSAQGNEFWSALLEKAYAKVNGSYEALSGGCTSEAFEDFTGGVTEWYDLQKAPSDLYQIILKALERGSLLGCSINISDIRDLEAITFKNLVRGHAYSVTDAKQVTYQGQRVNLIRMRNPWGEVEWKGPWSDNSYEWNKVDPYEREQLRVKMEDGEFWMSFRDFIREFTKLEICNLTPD
T4 sequence (P97571 29-356): as above

CC(C)C[C@H](NC(=O)[C@H]1O[C@@H]1C(=O)O)C(=O)NCCCCN=C(N)N (relative stereo) [E64, trans-epoxysuccinyl-L-leucilamido(4-guanidino)-butane]
SLY-MCA hydrolysis by E64-reacted μI-II (μI-II-E64) ([1]; C115 μI-II reacted with E64 in 5 mM CaCl2): unable to hydrolyse SLY-MCA | inhibition of μI-II protease activity [1]: abolished; also recorded: inhibited | effect on W298 fluorescence of μI-II (μI-II (C115S) [2]; μI-II-E64 complex): quenching

[Ca+2].[Cl-].[Cl-] [CaCl2]
EC50 (μI-II (C115S) [3]): ~40 µM | EC50 (intact μ-calpain): 5 to 50 µM | CaCl2 concentration at which the fluorescence increase was >99% complete (μI-II (C115S) [2]): ~500 µM | CaCl2 concentration at which the fluorescence increase was first noticeable (μI-II (C115S) [2]): ~5 µM | total increase in the fluorescence intensity (μI-II (C115S) [2]; CaCl2 titration): ~36.8±0.5% | Hill coefficient (μI-II (C115S) [2]; CaCl2 titration fitted to the Hill equation): 2.72±0.42 | EC50 (μI-II (C115S) [2]; CaCl2 titration, excitation 280 nm, emission 340 nm, read-out: half-maximal change in intrinsic tryptophan fluorescence): 41.8 ± 7.1 µM

O=C(O)CN(CCN(CC(=O)O)CC(=O)O)CC(=O)O [EDTA, reference compound]
reversal of the Ca2+-induced fluorescence change (μI-II (C115S) [2]; data not shown): completely reversed

[Cl-].[Cl-].[Mg+2] [MgCl2]
proteolysis of C105S m-calpain by μI-II when substituted for Ca2+ (μI-II [4]): no proteolysis | ability to substitute for CaCl2 in the intrinsic tryptophan fluorescence change (μI-II (C115S) [2]): unable to substitute

[Cl][Mn][Cl] [MnCl2]
ability to substitute for CaCl2 in the intrinsic tryptophan fluorescence change (μI-II (C115S) [2]): unable to substitute

[Cl-].[Cl-].[Zn+2] [ZnCl2]
ability to substitute for CaCl2 in the intrinsic tryptophan fluorescence change (μI-II (C115S) [2]): unable to substitute

CCCC[C@@H](C=O)NC(=O)[C@H](CC(C)C)NC(=O)[C@H](CC(C)C)NC(C)=O [calpain inhibitor I] (Ac-Leu-Leu-[Nle]-aldehyde)
inhibition of μI-II protease activity [1]: abolished; also recorded: inhibited

CC(=O)N[C@@H](CC(C)C)C(=O)N[C@@H](CC(C)C)C(=O)N[C@H](C=O)CCCNC(=N)N [leupeptin]
inhibition of μI-II protease activity [1]: abolished; also recorded: inhibited

μI-II: recombinant protease core, domains I and II (residues 29-356) of rat μ-calpain with C-terminal His tag
catalytic efficiency relative to the full enzyme ([1]; SLY-MCA digestion): ~2% | decrease in turnover (kcat) compared to intact m-calpain ([1]; SLY-MCA digestion): 35 fold | μI-II still present after autodigestion (μI-II [5]): Over 50%
